Source: paper PMC6328587 (Nature Communications, 2019)

Legend:
Format in all cases: cell-based
[1] = molecular target: T1, wild-type p38δ (Homo sapiens, UniProt O15264); test: Degradation of transfected wild-type p38δ in HeLa cells; conditions: 24 h
T1 construct: expressed in transfected cells; host or cells: HeLa
T1 sequence (O15264 1-365): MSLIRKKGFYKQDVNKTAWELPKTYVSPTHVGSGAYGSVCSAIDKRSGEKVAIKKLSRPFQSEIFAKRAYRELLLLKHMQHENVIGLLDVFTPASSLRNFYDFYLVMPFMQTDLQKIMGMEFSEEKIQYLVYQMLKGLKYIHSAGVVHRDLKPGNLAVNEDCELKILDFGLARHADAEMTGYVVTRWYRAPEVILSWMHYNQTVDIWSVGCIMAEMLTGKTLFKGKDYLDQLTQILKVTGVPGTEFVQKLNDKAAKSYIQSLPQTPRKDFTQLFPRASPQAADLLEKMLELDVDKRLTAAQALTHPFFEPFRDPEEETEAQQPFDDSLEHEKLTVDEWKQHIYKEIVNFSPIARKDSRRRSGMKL
Experimental: Mutant p38δ was generated by QuikChange Lightning site-directed mutagenesis kit (Agilent). Transfections were carried out using Lipofectamine 2000 reagent (Invitrogen) in HeLa cells seeded at 3 × 10^5 cells per six well. One microgram of FLAG-containing pcDNA5-p38delta-WT or pcDNA5-p38delta-K220ET221E was used per transfection. Opti-MEM media were changed after 6 h to DMEM (1 × ), at which point the indicated compounds were added for 24 h before harvesting.

[2] = molecular target: T2, p38β (Homo sapiens, UniProt Q15759); test: p38β degradation, western blot in MDA-MB-231 cells; conditions: concentrations up to 2.5 µM
T2 construct: endogenous in cells; host or cells: MDA-MB-231
Experimental: […] once with ice-cold PBS (1 × ), followed by lysis in buffer containing 25 mM Tris [pH 7.5], 0.25% sodium deoxycholate, 1% Triton X-100, supplemented with 1X protease inhibitor cocktail (Roche), and phosphatase inhibitors (10 mM NaF, 1 mM Na3VO4, and 20 mM β-glycerophosphate), unless otherwise noted. Lysates were spun at 14,000 × g for 10 min at 4 °C and supernatant was evaluated for protein content using a Pierce BCA Protein Assay (ThermoFisher Scientific). In all experiments, 25–50 μg of protein was loaded onto 10% SDS-PAGE gels or 4–20% Criterion TGX precast gradient gels (Bio-Rad), transferred to nitrocellulose membranes, and probed with the specified antibodies overnight at 4 °C in 1X TBS-Tween (Tris-buffered saline plus 0.02% Tween 20) containing 5% non-fat milk. Immunoblots were visualized using a Bio-Rad ChemiDoc imaging instrument and subsequently processed and quantified using the accompanying Bio-Rad ImageLab software. See Supplementary Figure 8 for uncropped scans of western blots shown in the main text figures.
Supplementary Figure 4 cont.
Supplementary Figure 4. Characterization of M APK fam ily degradation selectivity (related to Figures 1-2). (a) p38 M APK fam ily m em bers (α, β, δ, γ) were aligned using the T-Coffee multiple sequence alignm ent server. […] Note: JNK1 and JNK2 are expressed as two alternatively-spliced form s. […]

[3] = molecular target: T3, FLAG-p38α (Homo sapiens, UniProt Q16539); test: Ubiquitination assay, FLAG-p38α and HA-Ub in HeLa cells; conditions: 500 nM PROTAC, 1 h
T3 construct: expressed in transfected cells; host or cells: HeLa
Experimental: HeLa cells (2 × 10^6) were seeded into 10 cm dishes and allowed to adhere overnight. On the following day, cells were transfected with 3 µg pcDNA5-FLAG-p38α or pcDNA5-FLAG-p38δ and 1 µg pRK5-HA-Ubiquitin-WT (Addgene plasmid #17608) in Opti-MEM media using Lipofectamine 2000 (Invitrogen). After 6 h, Opti-MEM media were replaced with DMEM (1 × ) and cells were grown for an additional 24 h. After this time, cells were treated with indicated concentrations of either vehicle (DMSO) or PROTAC for the indicated amount of time at 37 °C. Cells were then placed on ice, rinsed twice with ice-cold 1X PBS and lysed in 500 µL modified 1X RIPA buffer (25 mM Tris-HCl pH 7.6, 150 mM NaCl, 1% NP-40, 1% sodium deoxycholate, 0.1% SDS) containing 5 mM 1,10-phenanthroline monohydrate, 10 mM N-ethylmaleimide, 20 µM PR-619, and 1X protease inhibitor cocktail (Roche). Lysates were spun down at 14,000 × g at 4 °C for 20 min and protein content was measured by Pierce BCA Protein Assay (ThermoFisher Scientific). […] Immunoprecipitated protein was eluted off of the beads by heating at 95 °C for 5 min and the supernatant was run on an SDS-PAGE gel and evaluated for the presence of immunoprecipitated FLAG-tagged proteins (anti-FLAG M2, Sigma #F1804), as well as ubiquitinated FLAG-tagged proteins (anti-HA-tag (6E2), CST #2367). […]

T3 sequence (Q16539 whole entry): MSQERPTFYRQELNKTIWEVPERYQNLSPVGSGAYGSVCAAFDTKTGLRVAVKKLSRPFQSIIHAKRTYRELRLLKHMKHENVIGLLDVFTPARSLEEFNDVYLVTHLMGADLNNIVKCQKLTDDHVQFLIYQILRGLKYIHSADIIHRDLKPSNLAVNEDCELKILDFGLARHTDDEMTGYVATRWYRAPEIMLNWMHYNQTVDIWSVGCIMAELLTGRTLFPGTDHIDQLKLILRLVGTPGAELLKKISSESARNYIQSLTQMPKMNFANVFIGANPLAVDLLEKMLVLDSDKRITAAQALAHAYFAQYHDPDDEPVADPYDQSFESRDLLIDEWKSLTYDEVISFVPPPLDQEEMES
T2 sequence (Q15759 whole entry): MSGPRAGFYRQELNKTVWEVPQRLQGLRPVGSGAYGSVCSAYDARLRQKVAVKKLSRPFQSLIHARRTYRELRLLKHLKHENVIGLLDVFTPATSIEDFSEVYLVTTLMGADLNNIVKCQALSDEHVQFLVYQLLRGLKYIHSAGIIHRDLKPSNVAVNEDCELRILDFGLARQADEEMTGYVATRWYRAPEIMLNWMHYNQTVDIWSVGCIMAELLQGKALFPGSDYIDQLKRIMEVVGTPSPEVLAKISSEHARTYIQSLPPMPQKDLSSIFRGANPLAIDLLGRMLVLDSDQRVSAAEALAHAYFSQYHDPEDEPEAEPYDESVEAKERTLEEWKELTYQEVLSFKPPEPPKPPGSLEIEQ

SMILES	degradation of wild-type p38δ [1]	p38β degradation [2]	ubiquitination of FLAG-p38α [3]
COc1cc2c(Oc3ccc(NC(=O)C4(C(=O)Nc5ccc(F)cc5)CC4)cc3F)ccnc2cc1OCCOCCOCCOc1cc(-c2scnc2C)ccc1CNC(=O)[C@@H]1C[C@@H](O)CN1C(=O)[C@H](C(C)C)N1Cc2ccccc2C1=O [SJFδ]	able to eliminate wild-type p38δ	does not degrade	this effect was not seen
COc1cc2c(Oc3ccc(NC(=O)C4(C(=O)Nc5ccc(F)cc5)CC4)cc3F)ccnc2cc1OCCCCOCCCCOCC(=O)N[C@H](C(=O)N1C[C@H](O)C[C@H]1C(=O)NCc1ccc(-c2scnc2C)cc1)C(C)(C)C [SJFα]	not wild-type p38δ	does not degrade	substantial, high molecular weight (HMW) poly-Ub conjugation
